Measured values: US6358885B1, “Substituted phenylheterocyclic herbicides” (Mississippi State University, priority 1992, dated 2002)

Columns and labels:
Experiment in all cases: Test B preemergence/postemergence greenhouse plant response rating 0 to 10
barley = assay type: in vivo, Hordeum vulgare; details: for Plant response rating, Barley: 0 to 10 scale
In short: (§1)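 Planted seeds are treated preemergence with compound dissolved in a non-phytotoxic solvent, while postemergence applications go onto plants of two to eighteen cm. Plants stay in the greenhouse twelve to sixteen days and are then rated visually relative to controls.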

barnyardgrass = assay type: in vivo, Echinochloa crus-galli; details: for Plant response rating, Barnyardgrass: 0 to 10 scale
In short: as §1

bedstraw = assay type: in vivo, Galium aparine; details: for Plant response rating, Bedstraw: 0 to 10 scale
In short: as §1

blackgrass = assay type: in vivo, Alopecurus myosuroides; details: for Plant response rating, Blackgrass: 0 to 10 scale
In short: as §1

cheatgrass = assay type: in vivo, Bromus secalinus; details: for Plant response rating, Cheatgrass: 0 to 10 scale
In short: as §1

chickweed = assay type: in vivo, Stellaria media; details: for Plant response rating, Chickweed: 0 to 10 scale
In short: as §1

cocklebur = assay type: in vivo, Xanthium pensylvanicum; details: for Plant response rating, Cocklebur: 0 to 10 scale
In short: as §1

corn = assay type: in vivo, Zea mays; details: for Plant response rating, Corn: 0 to 10 scale
In short: as §1

cotton = assay type: in vivo, Gossypium hirsutum; details: for Plant response rating, Cotton: 0 to 10 scale
In short: as §1

crabgrass = assay type: in vivo, Digitaria spp.; details: for Plant response rating, Crabgrass: 0 to 10 scale
In short: as §1

giant foxtail = assay type: in vivo, Setaria faberii; details: for Plant response rating, Giant foxtail: 0 to 10 scale
In short: as §1

lambsquarters = assay type: in vivo, Chenopodium album; details: for Plant response rating, Lambsquarter: 0 to 10 scale
In short: as §1

morningglory = assay type: in vivo, Ipomoea hederacea; details: for Plant response rating, Morningglory: 0 to 10 scale
In short: as §1

rape = assay type: in vivo, Brassica napus; details: for Plant response rating, Rape: 0 to 10 scale
In short: as §1

rice = assay type: in vivo, Oryza sativa; details: for Plant response rating, Rice: 0 to 10 scale
In short: as §1

sorghum = assay type: in vivo, Sorghum bicolor; details: for Plant response rating, Sorghum: 0 to 10 scale
In short: as §1

soybean = assay type: in vivo, Glycine max; details: for Plant response rating, Soybean: 0 to 10 scale
In short: as §1

sugar beet = assay type: in vivo, Beta vulgaris; details: for Plant response rating, Sugar beet: 0 to 10 scale
In short: as §1

velvetleaf = assay type: in vivo, Abutilon theophrasti; details: for Plant response rating, Velvetleaf: 0 to 10 scale
In short: as §1

wheat = assay type: in vivo, Triticum aestivum; details: for Plant response rating, Wheat: 0 to 10 scale
In short: as §1

wild buckwheat = assay type: in vivo, Polygonum convolvulus; details: for Plant response rating, Wild buckwheat: 0 to 10 scale
In short: as §1

wild oat = assay type: in vivo, Avena fatua; details: for Plant response rating, Wild oat: 0 to 10 scale
In short: as §1

purple nutsedge = assay type: in vivo, Cyperus rotundus; details: for Plant response rating, Nutsedge: 0 to 10 scale
In short: as §1

CC(C)OC(=O)COc1cc(-c2nn3c(c2Br)CCCC3)c(F)cc1Cl [Compound 64]
2: Plant response rating, Barley (barley; POSTEMERGENCE, Rate 50 g/ha) | Plant response rating, Blackgrass (blackgrass; POSTEMERGENCE, Rate 50 g/ha) | Plant response rating (0 to 10 scale), Blackgrass (blackgrass; PREEMERGENCE, Rate 200 g/ha) | Plant response rating, Cheatgrass (cheatgrass; POSTEMERGENCE, Rate 50 g/ha) | Plant response rating, Cheatgrass (cheatgrass; PREEMERGENCE, Rate 50 g/ha) | Plant response rating (0 to 10 scale), Cheatgrass (cheatgrass; PREEMERGENCE, Rate 200 g/ha) | Plant response rating, Chickweed (chickweed; POSTEMERGENCE, Rate 50 g/ha) | Plant response rating (0 to 10 scale), Cocklebur (cocklebur; PREEMERGENCE, Rate 200 g/ha) | Plant response rating (0 to 10 scale), Rice (rice; PREEMERGENCE, Rate 200 g/ha) | Plant response rating, Wheat (wheat; Rate 200 g/ha, POSTEMERGENCE) | Plant response rating, Nutsedge (purple nutsedge; POSTEMERGENCE, Rate 50 g/ha) | Plant response rating, Nutsedge (purple nutsedge; Rate 200 g/ha, POSTEMERGENCE)
1: Plant response rating (0 to 10 scale), Barnyardgrass (barnyardgrass; PREEMERGENCE, Rate 200 g/ha) | Plant response rating (0 to 10 scale), Bedstraw (bedstraw; PREEMERGENCE, Rate 200 g/ha) | Plant response rating, Blackgrass (blackgrass; PREEMERGENCE, Rate 50 g/ha)
7: Plant response rating, Barnyardgrass (barnyardgrass; Rate 200 g/ha, POSTEMERGENCE) | Plant response rating, Rape (rape; POSTEMERGENCE, Rate 50 g/ha)
10: Plant response rating, Bedstraw (bedstraw; POSTEMERGENCE, Rate 50 g/ha) | Plant response rating, Bedstraw (bedstraw; Rate 200 g/ha, POSTEMERGENCE) | Plant response rating, Cocklebur (cocklebur; POSTEMERGENCE, Rate 50 g/ha) | Plant response rating, Cocklebur (cocklebur; Rate 200 g/ha, POSTEMERGENCE) | Plant response rating, Cotton (cotton; POSTEMERGENCE, Rate 50 g/ha) | Plant response rating, Cotton (cotton; Rate 200 g/ha, POSTEMERGENCE) | Plant response rating, Lambsquarter (lambsquarters; PREEMERGENCE, Rate 50 g/ha) | Plant response rating (0 to 10 scale), Lambsquarter (lambsquarters; PREEMERGENCE, Rate 200 g/ha) | Plant response rating, Lambsquarter (lambsquarters; Rate 200 g/ha, POSTEMERGENCE) | Plant response rating, Morningglory (morningglory; Rate 200 g/ha, POSTEMERGENCE) | Plant response rating, Rape (rape; Rate 200 g/ha, POSTEMERGENCE) | Plant response rating, Sugar beet (sugar beet; POSTEMERGENCE, Rate 50 g/ha) | Plant response rating (0 to 10 scale), Sugar beet (sugar beet; PREEMERGENCE, Rate 200 g/ha) | Plant response rating, Sugar beet (sugar beet; Rate 200 g/ha, POSTEMERGENCE) | Plant response rating, Velvetleaf (velvetleaf; POSTEMERGENCE, Rate 50 g/ha) | Plant response rating, Velvetleaf (velvetleaf; Rate 200 g/ha, POSTEMERGENCE) | Plant response rating, Wild buckwheat (wild buckwheat; POSTEMERGENCE, Rate 50 g/ha) | Plant response rating (0 to 10 scale), Wild buckwheat (wild buckwheat; PREEMERGENCE, Rate 200 g/ha) | Plant response rating, Wild buckwheat (wild buckwheat; Rate 200 g/ha, POSTEMERGENCE)
6: Plant response rating, Soybean (soybean; POSTEMERGENCE, Rate 50 g/ha) | Plant response rating (0 to 10 scale), Velvetleaf (velvetleaf; PREEMERGENCE, Rate 200 g/ha)
9: Plant response rating, Lambsquarter (lambsquarters; POSTEMERGENCE, Rate 50 g/ha) | Plant response rating, Morningglory (morningglory; POSTEMERGENCE, Rate 50 g/ha) | Plant response rating, Sugar beet (sugar beet; PREEMERGENCE, Rate 50 g/ha)
0: Plant response rating, Barley (barley; PREEMERGENCE, Rate 50 g/ha) | Plant response rating (0 to 10 scale), Barley (barley; PREEMERGENCE, Rate 200 g/ha) | Plant response rating, Barnyardgrass (barnyardgrass; PREEMERGENCE, Rate 50 g/ha) | Plant response rating, Bedstraw (bedstraw; PREEMERGENCE, Rate 50 g/ha) | Plant response rating, Chickweed (chickweed; PREEMERGENCE, Rate 50 g/ha) | Plant response rating (0 to 10 scale), Chickweed (chickweed; PREEMERGENCE, Rate 200 g/ha) | Plant response rating, Cocklebur (cocklebur; PREEMERGENCE, Rate 50 g/ha) | Plant response rating, Corn (corn; PREEMERGENCE, Rate 50 g/ha) | Plant response rating (0 to 10 scale), Corn (corn; PREEMERGENCE, Rate 200 g/ha) | Plant response rating, Cotton (cotton; PREEMERGENCE, Rate 50 g/ha) | Plant response rating (0 to 10 scale), Cotton (cotton; PREEMERGENCE, Rate 200 g/ha) | Plant response rating, Crabgrass (crabgrass; PREEMERGENCE, Rate 50 g/ha) | Plant response rating (0 to 10 scale), Crabgrass (crabgrass; PREEMERGENCE, Rate 200 g/ha) | Plant response rating, Giant foxtail (giant foxtail; PREEMERGENCE, Rate 50 g/ha) | Plant response rating (0 to 10 scale), Giant foxtail (giant foxtail; PREEMERGENCE, Rate 200 g/ha) | Plant response rating, Morningglory (morningglory; PREEMERGENCE, Rate 50 g/ha) | Plant response rating, Rape (rape; PREEMERGENCE, Rate 50 g/ha) | Plant response rating (0 to 10 scale), Rape (rape; PREEMERGENCE, Rate 200 g/ha) | Plant response rating, Rice (rice; PREEMERGENCE, Rate 50 g/ha) | Plant response rating, Sorghum (sorghum; PREEMERGENCE, Rate 50 g/ha) | Plant response rating (0 to 10 scale), Sorghum (sorghum; PREEMERGENCE, Rate 200 g/ha) | Plant response rating, Soybean (soybean; PREEMERGENCE, Rate 50 g/ha) | Plant response rating (0 to 10 scale), Soybean (soybean; PREEMERGENCE, Rate 200 g/ha) | Plant response rating, Wheat (wheat; PREEMERGENCE, Rate 50 g/ha) | Plant response rating (0 to 10 scale), Wheat (wheat; PREEMERGENCE, Rate 200 g/ha) | Plant response rating, Wild oat (wild oat; PREEMERGENCE, Rate 50 g/ha) | Plant response rating (0 to 10 scale), Wild oat (wild oat; PREEMERGENCE, Rate 200 g/ha) | Plant response rating, Nutsedge (purple nutsedge; PREEMERGENCE, Rate 50 g/ha) | Plant response rating (0 to 10 scale), Nutsedge (purple nutsedge; PREEMERGENCE, Rate 200 g/ha)
3: Plant response rating, Barley (barley; Rate 200 g/ha, POSTEMERGENCE) | Plant response rating, Blackgrass (blackgrass; Rate 200 g/ha, POSTEMERGENCE) | Plant response rating, Cheatgrass (cheatgrass; Rate 200 g/ha, POSTEMERGENCE) | Plant response rating, Corn (corn; Rate 200 g/ha, POSTEMERGENCE) | Plant response rating, Crabgrass (crabgrass; POSTEMERGENCE, Rate 50 g/ha) | Plant response rating, Giant foxtail (giant foxtail; POSTEMERGENCE, Rate 50 g/ha) | Plant response rating, Giant foxtail (giant foxtail; Rate 200 g/ha, POSTEMERGENCE) | Plant response rating, Velvetleaf (velvetleaf; PREEMERGENCE, Rate 50 g/ha) | Plant response rating, Wheat (wheat; POSTEMERGENCE, Rate 50 g/ha) | Plant response rating, Wild oat (wild oat; POSTEMERGENCE, Rate 50 g/ha) | Plant response rating, Wild oat (wild oat; Rate 200 g/ha, POSTEMERGENCE)
5: Plant response rating, Barnyardgrass (barnyardgrass; POSTEMERGENCE, Rate 50 g/ha) | Plant response rating, Chickweed (chickweed; Rate 200 g/ha, POSTEMERGENCE) | Plant response rating, Corn (corn; POSTEMERGENCE, Rate 50 g/ha) | Plant response rating, Crabgrass (crabgrass; Rate 200 g/ha, POSTEMERGENCE) | Plant response rating, Rice (rice; Rate 200 g/ha, POSTEMERGENCE) | Plant response rating, Soybean (soybean; Rate 200 g/ha, POSTEMERGENCE) | Plant response rating, Wild buckwheat (wild buckwheat; PREEMERGENCE, Rate 50 g/ha)
8: Plant response rating (0 to 10 scale), Morningglory (morningglory; PREEMERGENCE, Rate 200 g/ha)
4: Plant response rating, Rice (rice; POSTEMERGENCE, Rate 50 g/ha) | Plant response rating, Sorghum (sorghum; POSTEMERGENCE, Rate 50 g/ha) | Plant response rating, Sorghum (sorghum; Rate 200 g/ha, POSTEMERGENCE)
